Each block holds one molecule with its values, some of them ahead of it.
What was measured:
[1] = system: NEP mRNA in human PA SMCs; test: NEP mRNA levels in human PA SMCs (qRT-PCR); type: cell-based
Protocol: (§1) PA SMCs were isolated from the main PA of ‘normal’ human tissue donors (Clonetics®, Basel, Switzerland, α-SM actin positive, Factor VIII negative). Passages 6-10 were maintained in SmBM® (5% FBS), at 37° C., and used for experimentation. […] The antioxidants Tiron (2.5 mM; Sigma) (Taiwo, 2008), MnTMPyp (an SOD/catalase mimetic (Day et al., 1997), 20 μM; Calbiochem), or polyethylene glycol (PEG) conjugated catalase Beckman et al., 1988) (40 units/ml; Sigma), or the protein degradation inhibitors (Folimycin Huss and Wieczorek, 2009) for lysosomes, 50 nM; Clastolactacystin β-lactone (Dick et al., 1996) for proteasomes, 1 μM; Calbiochem) were added 0.5 or 2 h, respectively, before exposures.

[2] = biological target: T1, NEP in human PA SMCs (Homo sapiens, UniProt P08473); test: NEP catalytic activity in human PA SMCs (fluorometric); type: cell-based; details: for prevention of H2O2-induced decreases in PA SMC NEP activity: antioxidant added 0.5 h before 4 h H2O2 (100 μM), MnTMPyp 20 μM, PEG-catalase 40 units/ml
T1 construct: host or cells: primary human PA SMCs, passages 6-10
T1 sequence (P08473 whole entry): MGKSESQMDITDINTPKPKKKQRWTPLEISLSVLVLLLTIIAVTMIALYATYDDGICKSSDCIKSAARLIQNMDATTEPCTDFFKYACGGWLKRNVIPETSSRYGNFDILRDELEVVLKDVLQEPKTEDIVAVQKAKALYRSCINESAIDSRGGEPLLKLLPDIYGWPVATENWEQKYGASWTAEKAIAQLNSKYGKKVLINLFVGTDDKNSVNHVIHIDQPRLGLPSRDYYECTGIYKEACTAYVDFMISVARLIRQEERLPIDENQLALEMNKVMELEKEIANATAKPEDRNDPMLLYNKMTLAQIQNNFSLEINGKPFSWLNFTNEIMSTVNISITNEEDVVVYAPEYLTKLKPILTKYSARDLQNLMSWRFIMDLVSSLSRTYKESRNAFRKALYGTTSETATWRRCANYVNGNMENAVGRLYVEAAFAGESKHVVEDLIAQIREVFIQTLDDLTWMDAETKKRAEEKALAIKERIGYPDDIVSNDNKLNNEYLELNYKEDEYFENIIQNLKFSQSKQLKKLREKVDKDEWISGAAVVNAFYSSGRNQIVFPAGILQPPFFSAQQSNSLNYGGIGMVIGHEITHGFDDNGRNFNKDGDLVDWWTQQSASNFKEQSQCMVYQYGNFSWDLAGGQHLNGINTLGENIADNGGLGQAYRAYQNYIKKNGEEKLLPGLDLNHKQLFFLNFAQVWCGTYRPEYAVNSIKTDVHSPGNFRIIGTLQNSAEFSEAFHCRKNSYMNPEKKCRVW
Protocol: (§2) Lung samples ([…]) or PA SMCs were homogenized in 0.5 ml 20 mM MES, pH 6.5, containing protease inhibitors, and for PA SMCs, 0.5% CHAPS. After centrifugation (10,000×g, 10 min), supernatant was stored at −80° C. NEP activity was measured as described (Dempsey et al., 2009). DPPIV activity was measured by DPPIV-Glo Protease Assay (Promega). Western analyses (Dempsey et al., 2009) with anti-human NEP (56C6, Neomarkers) were assessed by densitometry.
as §1

[3] = biological target: recombinant human NEP (Homo sapiens, UniProt P08473); test: biochemical; details: read-out: inhibition of residual rNEP activity
recombinant human NEP, sequence (P08473 whole entry): as above
Protocol: as §2

[4] = biological target: NEP activity in ‘Control’ human lung homogenates (Homo sapiens, UniProt P08473); test: biochemical; details: read-out: inhibition of NEP activity in ‘Control’ crude lung homogenates
NEP activity in ‘Control’ human lung homogenates, sequence (P08473 whole entry): as above
Protocol: as §2

[5] = system: NEP+/+ PASMCs; test: Proliferation of NEP+/+ PASMCs (3H-thymidine incorporation); type: cell-based, mouse; details: wild-type PASMCs, 48 h treatment; phosphoramidon 10 μMole/L or NEP siRNA 10 nMole/L; serum 0.2%, PDGF 10 ng/ml
Protocol: (§3) Mice were anesthetized with sodium pentobarbital (100 mg/kg i.p.). Proximal medial tissue was micro dissected from individual age matched 13-17 wk old NEP+/+ and NEP−/− littermate mice. Tissue was digested with […] and cells were grown in DMEM-F-12 medium containing 10% fetal bovine serum (FBS) as described (Petkov et al., 2003). PASMCs were characterized by light microscopic appearance, growth characteristics, and stained for α-SM-actin, SM-myosin, Factor VIII and LDL between passage 3 and 6. PASMCs were used for studies between passage 6 and 13.
The effects of growth factors and neuropeptides on DNA synthesis were evaluated as previously reported (Petkov et al., 2003). SMCs were grown in DMEM containing 10% FBS in 24-well plates for about 16 hr. PASMCs were then incubated in DMEM supplemented with 0.2% FBS for 24 hr to make them quiescent. […] [^3H]-thymidine obtained from Perkin Elmer (Waltham, Mass.) at 1 mCi/ml was added for the last 6 hr. After labeling was completed, the cells were washed twice with ice-cold PBS, and proteins were precipitated with 5% perchloric acid. The precipitate was dissolved with 0.5N NaOH and SDS and radioactivity was measured using a liquid scintillation counter made by Beckman Coulter, Inc. (Brea, Calif.).

[6] = biological target: T2, NEP activity in wild-type cells (Mus musculus, UniProt Q61391); details: phosphoramidon 10 μmole/liter; cited from earlier work
T2 construct: endogenous in cells; host or cells: wild-type (NEP+/+) mouse PASMCs
T2 sequence (Q61391 1-750): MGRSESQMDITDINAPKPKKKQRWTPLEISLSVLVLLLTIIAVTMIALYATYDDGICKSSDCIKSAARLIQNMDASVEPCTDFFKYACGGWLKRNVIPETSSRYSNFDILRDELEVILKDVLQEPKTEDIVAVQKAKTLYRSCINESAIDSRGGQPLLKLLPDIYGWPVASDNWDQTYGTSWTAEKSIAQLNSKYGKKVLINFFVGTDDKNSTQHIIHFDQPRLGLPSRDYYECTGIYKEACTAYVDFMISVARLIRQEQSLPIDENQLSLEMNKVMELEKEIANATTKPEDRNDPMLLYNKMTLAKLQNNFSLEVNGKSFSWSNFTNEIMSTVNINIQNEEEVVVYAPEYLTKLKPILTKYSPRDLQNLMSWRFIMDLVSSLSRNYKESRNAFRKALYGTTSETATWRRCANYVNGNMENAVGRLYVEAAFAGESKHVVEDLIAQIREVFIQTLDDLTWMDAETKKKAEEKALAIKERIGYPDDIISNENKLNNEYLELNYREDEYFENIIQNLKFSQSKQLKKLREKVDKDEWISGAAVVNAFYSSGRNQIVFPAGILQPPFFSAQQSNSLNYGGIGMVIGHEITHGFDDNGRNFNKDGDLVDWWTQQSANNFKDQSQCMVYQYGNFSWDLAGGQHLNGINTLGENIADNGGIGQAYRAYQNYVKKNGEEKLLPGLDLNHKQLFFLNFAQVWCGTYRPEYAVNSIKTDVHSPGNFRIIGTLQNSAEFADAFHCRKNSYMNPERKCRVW

[7] = system: SM-contractile proteins (α-SM-actin, SM-myosin, SM-22, calponin); test: SM-contractile protein expression in PASMCs (Western blotting); type: cell-based, mouse
Protocol: Cell lysates were prepared in immunoprecipitation buffer (20 mM Tris HCl (pH 7.5), 150 mM NaCl, 1 mM EDTA, 10% glycerol, 1% Nonidet P-40; 1 mM dithiothreitol, 10 mM NaF, 1 mM sodium orthovanadate, 10 μg/ml leupeptin, 10 μg/ml aprotinin, 10 μg/ml pepstatin A, and 1 mM phenylmethylsulfonyl fluoride) (Petkov et al., 2003). Cells were scraped from the plates, lysed on ice for 30 min. Cellular debris was eliminated by centrifugation for 10 min at 10,000 rpm. The protein concentration was determined by the BCA protein Assay®. Proteins (20-100 μg) were separated on SDS-PAGE and transferred to nitrocellulose membranes obtained from GE Healthcare, (Piscataway, N.J.). Membranes were blocked in PBS containing 0.1% Tween-20 and 1% BSA for 1 h at room temperature. Membranes were incubated with primary antibodies overnight at 4° C., and with secondary antibodies for 1 h at room temperature. All antibodies were diluted in PBS containing 0.1% Tween 20 and 1% BSA, and ECL reagent obtained from Perkin Elmer (Waltham, Mass.) was used for immunodetection. GAPDH was used as a loading control.
A Bio-Rad gel scanner and densitometer (Gel DocXR with Quantity 1 program) were used to assess the intensity of the bands obtained by Western blots. […] The arbitrary units obtained were normalized to GAPDH and the ratios for NEP+/+ to NEP−/− PASMCs were calculated. […]

[8] = system: NEP+/+ PASMCs; test: Migration of NEP+/+ PASMCs (scratch assay); type: cell-based, mouse; details: wild-type PASMCs, 48 h treatment; phosphoramidon 10 μMole/L or NEP siRNA 10 nMole/L; serum 0.2%, PDGF 10 ng/ml
Protocol: as §3
Briefly, PASMCs were grown to confluence on 60 mm plates (Hamidi et al., 2008). The cells were serum starved in DMEM-F-12 medium with 0.2% serum for 24 h, and scraped with a sterile P200 pipette tip to generate a cell-free zone. PASMCs were then rinsed with medium and incubated with either 0.2% serum or 10 ng/ml PDGF-BB and cells that migrated into the scratch were visualized by light microscopic imaging. Quantitation of migration was done by counting the number of PASMCs in a 5 cm^2 area of the scratch. […]
Migration was determined by a modified Boyden chamber assay using a polycarbonate filter with […] pore diameter obtained from Neuroprobe (Gaithersburg, Md.) (Said et al., 2007). […] The membranes were examined under a microscope and the cells that migrated to the lower surface were counted (five random 20× fields/well).

[9] = system: NEP KO PA SMCs; details: added to the cell culture media or lentiviral transduction; cited from earlier work

Molecule: OO [H2O2, hydrogen peroxide]
- effect on NEP mRNA expression ([1]; 100 μM H2O2, 48 h): did not significantly decrease
- transient decrease in NEP mRNA ([1]; after 4 h exposure to H2O2, preliminary experiments): 40%
- NEP activity after exposure, without Tiron ([2]; 4 h exposure, CSE 5 μg/ml, H2O2 100 μM): significantly decreased
- inhibition at 100 µM [3]: 68%
- inhibition at 100 µM [4]: 38%

Molecule: CC(C)C[C@H](NP(=O)(O)O[C@@H]1O[C@@H](C)[C@H](O)[C@@H](O)[C@H]1O)C(=O)N[C@@H](Cc1c[nH]c2ccccc12)C(=O)O [phosphoramidon]
- proliferation in response to serum and PDGF [5]: increased
- inhibition of NEP activity in wild-type cells [6]: completely inhibits
- expression of SM-contractile proteins in NEP+/+ cells ([7]; phosphoramidon 10 μMole/L or NEP siRNA 10 nMole/L): decrease
- migration in response to serum and PDGF [8]: increased

Molecule: MnTMPyp
- prevention of H2O2-induced decreases in PA SMC NEP activity ([2]; Tiron 2.5 mM): prevented

B1: rNEP: recombinant human neprilysin protein (protein, UniProt P08473 2-750, looked up)
Neprilysin: GKSESQMDITDINTPKPKKKQRWTPLEISLSVLVLLLTIIAVTMIALYATYDDGICKSSDCIKSAARLIQNMDATTEPCTDFFKYACGGWLKRNVIPETSSRYGNFDILRDELEVVLKDVLQEPKTEDIVAVQKAKALYRSCINESAIDSRGGEPLLKLLPDIYGWPVATENWEQKYGASWTAEKAIAQLNSKYGKKVLINLFVGTDDKNSVNHVIHIDQPRLGLPSRDYYECTGIYKEACTAYVDFMISVARLIRQEERLPIDENQLALEMNKVMELEKEIANATAKPEDRNDPMLLYNKMTLAQIQNNFSLEINGKPFSWLNFTNEIMSTVNISITNEEDVVVYAPEYLTKLKPILTKYSARDLQNLMSWRFIMDLVSSLSRTYKESRNAFRKALYGTTSETATWRRCANYVNGNMENAVGRLYVEAAFAGESKHVVEDLIAQIREVFIQTLDDLTWMDAETKKRAEEKALAIKERIGYPDDIVSNDNKLNNEYLELNYKEDEYFENIIQNLKFSQSKQLKKLREKVDKDEWISGAAVVNAFYSSGRNQIVFPAGILQPPFFSAQQSNSLNYGGIGMVIGHEITHGFDDNGRNFNKDGDLVDWWTQQSASNFKEQSQCMVYQYGNFSWDLAGGQHLNGINTLGENIADNGGLGQAYRAYQNYIKKNGEEKLLPGLDLNHKQLFFLNFAQVWCGTYRPEYAVNSIKTDVHSPGNFRIIGTLQNSAEFSEAFHCRKNSYMNPEKKCRVW
- proliferation of the NEP KO PA SMCs [9]: dose-dependent inhibition
- levels of SM-markers (α-SM-actin, SM-22, calponin) in null PASMCs ([7]; NEP−/− PASMC, lentiviral human NEP construct or rNEP 10 μg/ml): restored

Other lines, results leading:

- prevention of decreases in NEP activity due to CSE, hypoxia or H2O2 ([2]; Tiron 2.5 mM, 0.5 h before and throughout 4 h exposure): prevented
- NEP activity under normoxia with Tiron vs normoxia alone ([2]; Tiron 2.5 mM, normoxia): did not differ significantly
- prevention of H2O2-induced decreases in PA SMC NEP activity ([2]; Tiron 2.5 mM): prevented
Molecule: O=S(=O)(O)c1cc(O)c(O)c(S(=O)(=O)O)c1 [Tiron]

- prevention of H2O2-induced decreases in PA SMC NEP activity ([2]; Tiron 2.5 mM): prevented
B2: PEG-catalase: polyethylene glycol (PEG) conjugated catalase, antioxidant (conjugate, UniProt P00432 2-527, looked up)
Catalase: ADNRDPASDQMKHWKEQRAAQKPDVLTTGGGNPVGDKLNSLTVGPRGPLLVQDVVFTDEMAHFDRERIPERVVHAKGAGAFGYFEVTHDITRYSKAKVFEHIGKRTPIAVRFSTVAGESGSADTVRDPRGFAVKFYTEDGNWDLVGNNTPIFFIRDALLFPSFIHSQKRNPQTHLKDPDMVWDFWSLRPESLHQVSFLFSDRGIPDGHRHMNGYGSHTFKLVNANGEAVYCKFHYKTDQGIKNLSVEDAARLAHEDPDYGLRDLFNAIATGNYPSWTLYIQVMTFSEAEIFPFNPFDLTKVWPHGDYPLIPVGKLVLNRNPVNYFAEVEQLAFDPSNMPPGIEPSPDKMLQGRLFAYPDTHRHRLGPNYLQIPVNCPYRARVANYQRDGPMCMMDNQGGAPNYYPNSFSAPEHQPSALEHRTHFSGDVQRFNSANDDNVTQVRTFYLKVLNEEQRKRLCENIAGHLKDAQLFIQKKAVKNFSDVHPEYGSRIQALLDKYNEEKPKNAVHTYVQHGSHLSAREKANL
modifications: PEG conjugated
notes: polyethylene glycol (PEG) conjugated catalase, antioxidant

From patent US9950044B2, “Treatment of pulmonary vascular remodeling with neprilysin” (THE REGENTS OF THE UNIVERSITY OF COLORADO, A BODY CORPORATE, priority 2010, dated 2018)
